Laboratory results from publication PMC9227106 (Viruses, 2022).
Values joined by “and” are separate entries in the source; they are usually repeats but may differ in a detail not shown here. Identical values can stand only once. Like-named read-outs stand apart in the source and are kept apart here.

Columns and labels:
[1] = tested on: Vpr-induced G2/M arrest in Vpr transfected HeLa cells; test: Analysis of the cell cycle using flow cytometry; assay type: cell-based, human; settings: for recovery of the G2-arrest mediated by Vpr (flow cytometry): 10 μM, Vpr-expressing HeLa cells, result in words; for G2 arrest recover (Flow cytometry) Vpr G1% / G2 arrest recover (Flow cytometry) Vpr G2% / G2 arrest recover (Flow cytometry) Vpr G2/G1: Flag-Vpr transfected HeLa; for G2 arrest recover (Flow cytometry) Vpr G1% / G2 arrest recover (Flow cytometry) Vpr G2% / G2 arrest recover (Flow cytometry) Vpr G2/G1 / G2 arrest recover (Flow cytometry) ZsG G1% / G2 arrest recover (Flow cytometry) ZsG G2% / G2 arrest recover (Flow cytometry) ZsG G2/G1: 10 µM; for G2 arrest recover (Flow cytometry) ZsG G1% / G2 arrest recover (Flow cytometry) ZsG G2% / G2 arrest recover (Flow cytometry) ZsG G2/G1: control vector (ZsG) transfected HeLa
HIV-1 NF462 = test: Inhibition assay of HIV replication in HIV-infected MDM (p24 ELISA); assay type: cell-based; settings: for inhibition of HIV-1 replication in MDM / inhibition at 10 µM: 10 µM; for inhibition of HIV-1 replication in MDM: two healthy donors 1 and 2, result in words; for inhibition at 10 µM: 8 days; for IC50: read-out: MDM IC50; for MDM SI: selective index, calculated as CC50/IC50 in MDM
GST-tagged Vpr protein = target: T1, GST-tagged Vpr protein (Human immunodeficiency virus type 1 group M subtype B, UniProt P12520); test: Surface plasmon resonance (SPR) binding analysis; parameters: species or system HIV-1; settings: for direct binding to Vpr (SPR): 50 μM compound, GST-Vpr on sensor chip, result in words; for Vpr Binding Kd: SPR (Biacore), GST-Vpr, 3.13 to 100 µM, two independent experiments
T1 construct: made in house; host or cells: E. coli
T1 sequence (P12520 whole entry): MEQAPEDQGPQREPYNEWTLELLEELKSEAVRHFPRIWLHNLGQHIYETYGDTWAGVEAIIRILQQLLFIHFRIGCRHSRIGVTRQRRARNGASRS

[2] = Cell-based cytotoxicity analysis, WST-1 assay (HeLa cell); settings: human; for viability at 48 h, 10 µM: vs DMSO; for CC50: 50% cytotoxic concentration, HeLa cells, WST-1
[3] = Cell-based cytotoxicity analysis, WST-1 assay (MDM cell); settings: human
Flag-Vpr in HeLa cells [4] = test: Localization of Vpr visualized by confocal microscopy; assay type: cell-based, HIV-1; settings: 10 μM, 44 h post-treatment
[5] = tested on: Vpr-induced G2/M arrest in Vpr transfected HeLa cells; test: Cell-based G2 arrest inhibition assay using […]; parameters: species or system human; settings: 10 µM, 44 h; for G2 arrest recover (CELAVIEW) recover rate vs DMSO(%): added 4 h post-transfection
Flag-Vpr in HeLa cells [6] = test: Expression level of Vpr assessed by Western blotting analysis; assay type: cell-based, HIV-1; settings: 10 μM, 44 h post-treatment
[7] = Human immunodeficiency virus 1, MDM donor 1, p24 ELISA, read-out: HIV replication inhibition (%) Donor 1
[8] = Human immunodeficiency virus 1, MDM donor 2, p24 ELISA, read-out: HIV replication inhibition (%) Donor 2
[9] = Human immunodeficiency virus 1, HIV-1 NF462-infected MDM, donors 1 and 4, 8 days, p24 ELISA
[10] = average of n=1 and n=2, read-out: HeLa viability (%) AVERAGE
[11] = replicate 1, read-out: HeLa viability (%) viability n=1
[12] = replicate 2, read-out: HeLa viability (%) viability n=2

## COCCCNC(=O)C(=O)N/N=C/c1c(O)ccc2ccccc12 [VTD227, N-[(1E)-2-(2-hydroxynaphthyl)-1-azavinyl]-N′-(3-methoxypropyl)ethane-1,2-diamide]
[1]
  recovery of the G2-arrest mediated by Vpr (flow cytometry): recovered the G2-arrest mediated by Vpr
  G2 arrest recover (Flow cytometry) Vpr G1%: 41.76%
  G2 arrest recover (Flow cytometry) Vpr G2%: 22.13%
  G2 arrest recover (Flow cytometry) Vpr G2/G1: 0.52 and 0.5299
  G2 arrest recover (Flow cytometry) ZsG G1%: 44.2%
  G2 arrest recover (Flow cytometry) ZsG G2%: 25.62%
  G2 arrest recover (Flow cytometry) ZsG G2/G1: 0.57 and 0.5796
HIV-1 NF462
  inhibition of HIV-1 replication in MDM: potently inhibited HIV-1 replication
  MDM SI: 22.9
HIV-1 NF462; [7]
  inhibition at 10 µM: 99.5%
HIV-1 NF462; [8]
  inhibition at 10 µM: 103%
HIV-1 NF462; [9]
  IC50: 0.78 ± 0.59 µM
GST-tagged Vpr protein
  Kd: 8.8 ± 0.48 µM
[2]; [10]
  viability at 48 h, 10 µM: 89.2%
[2]; [11]
  viability at 48 h, 10 µM: 84.2%
[2]; [12]
  viability at 48 h, 10 µM: 94.2%
[2]
  CC50: 99 ± 22 µM
[3]
  CC50 at 48 h: 17.9 ± 5.3 µM
  viability at 10 days, 10 µM: 82%
Flag-Vpr in HeLa cells [4]
  localization of Vpr in HeLa cells: not affected
[5]
  G2 arrest recover (CELAVIEW) cell count vs DMSO: 72.8
  G2 arrest recover (CELAVIEW) recover rate vs DMSO(%): 60.0%
Flag-Vpr in HeLa cells [6]
  expression level of Vpr in HeLa cells: not affected

## COc1ccc2ccccc2c1C1C=C(c2ccccc2)NC(=S)N1 (stereo not shown) [VTD232, 4-(2-methoxy-1-naphthyl)-6-phenyl-3,4-dihydro-2(1H)-pyrimidinethione]
[1]
  recovery of the G2-arrest mediated by Vpr (flow cytometry): recovered the G2-arrest mediated by Vpr
  G2 arrest recover (Flow cytometry) Vpr G1%: 29.06%
  G2 arrest recover (Flow cytometry) Vpr G2%: 39.99%
  G2 arrest recover (Flow cytometry) Vpr G2/G1: 1.376
  G2 arrest recover (Flow cytometry) ZsG G1%: 49.39%
  G2 arrest recover (Flow cytometry) ZsG G2%: 11.48%
  G2 arrest recover (Flow cytometry) ZsG G2/G1: 0.2324
HIV-1 NF462
  inhibition of HIV-1 replication in MDM: potently inhibited HIV-1 replication
  MDM SI: 7820
HIV-1 NF462; [7]
  inhibition at 10 µM: 99.1%
HIV-1 NF462; [8]
  inhibition at 10 µM: 82.2%
HIV-1 NF462; [9]
  IC50: 0.0039 ± 0.0046 µM
GST-tagged Vpr protein
  direct binding to Vpr (SPR): did not directly bind to Vpr
  Vpr Binding Kd: Not binding
[2]; [10]
  viability at 48 h, 10 µM: 87.5%
[2]; [11]
  viability at 48 h, 10 µM: 88%
[2]; [12]
  viability at 48 h, 10 µM: 87%
[2]
  CC50: 57.1 ± 30.9 µM
[3]
  CC50 at 48 h: 30.5 ± 5 µM
  viability at 10 days, 10 µM: 116%
Flag-Vpr in HeLa cells [4]
  localization of Vpr in HeLa cells: not affected
[5]
  G2 arrest recover (CELAVIEW) cell count vs DMSO: 95.1
  G2 arrest recover (CELAVIEW) recover rate vs DMSO(%): 49.2%
Flag-Vpr in HeLa cells [6]
  expression level of Vpr in HeLa cells: not affected

## CCOc1ccc(OCC(=O)Nc2cc(C)nn2-c2nc(C)c(CC)c(O)n2)cc1 [VTD263, 2-(4-ethoxyphenoxy)-N-[1-(5-ethyl-6-methyl-4-oxo(3-hydropyrimidin-2-yl))-3-methylpyrazol-5-yl]acetamide]
[1]
  recovery of the G2-arrest mediated by Vpr (flow cytometry): recovered the G2-arrest mediated by Vpr
  G2 arrest recover (Flow cytometry) Vpr G1%: 45.86%
  G2 arrest recover (Flow cytometry) Vpr G2%: 23.17%
  G2 arrest recover (Flow cytometry) Vpr G2/G1: 0.5052
  G2 arrest recover (Flow cytometry) ZsG G1%: 43.35%
  G2 arrest recover (Flow cytometry) ZsG G2%: 18.73%
  G2 arrest recover (Flow cytometry) ZsG G2/G1: 0.4321
HIV-1 NF462
  inhibition of HIV-1 replication in MDM: potently inhibited HIV-1 replication
  MDM SI: 3.4
HIV-1 NF462; 0.01 to 0.001 μM, MDM
  effect on HIV-1 replication at low concentration: tended to increase HIV-1 replication
HIV-1 NF462; Human immunodeficiency virus 1, […]
  IC50: 11.4 ± 4 µM
HIV-1 NF462; [7]
  inhibition at 10 µM: 91.2%
HIV-1 NF462; [8]
  inhibition at 10 µM: 73.3%
HIV-1 NF462; high concentration, MDM
  effect on HIV-1 virus release at high concentration: decreased the HIV-1 virus release
GST-tagged Vpr protein
  direct binding to Vpr (SPR): did not directly bind to Vpr
  Vpr Binding Kd: Not binding
[2]; [10]
  viability at 48 h, 10 µM: 70.1%
[2]; [11]
  viability at 48 h, 10 µM: 65.5%
[2]; [12]
  viability at 48 h, 10 µM: 74.7%
[2]
  CC50: > 100 µM
[3]
  CC50 at 48 h: 38.8 ± 0.76 µM
  viability at 10 days, 10 µM: 131%
Flag-Vpr in HeLa cells [4]
  localization of Vpr in HeLa cells: not affected
[5]
  G2 arrest recover (CELAVIEW) cell count vs DMSO: 81.6
  G2 arrest recover (CELAVIEW) recover rate vs DMSO(%): 95.5%
Flag-Vpr in HeLa cells [6]
  expression level of Vpr in HeLa cells: not affected
